Results taken from US20240117405A1, “COLORIMETRIC BIOSENSOR, PREPARATION METHOD THEREOF, AND ANTIBIOTIC SUSCEPTIBILITY TESTING METHOD USING THE SAME” (INHA UNIVERSITY RESEARCH AND BUSINESS FOUNDATION, priority 2022, published 2024).

Tested on: methicillin-resistant Staphylococcus Aureus (MRSA)
Assay: Antibiotic susceptibility test using encapsulated colorimetric biosensor
Type: cell-based
Settings: MRSA 10^6 CFU/mL, 37° C.; for time until color change (blue->red) of the colorimetric biosensor: photographed up to 15 hours
Method: An antibiotic susceptibility test was performed on the colorimetric biosensor in encapsulated form prepared in Example 1, and the results are shown in FIG. 5.
Specifically, an encapsulated colorimetric biosensor was prepared from Example 1 and introduced into wells containing 2 and 4 μg/mL of ampicillin antibiotics (See FIGS. 5B and 5C) and 0.25, 2 and 4 μg/mL of vancomycin antibiotics (See FIGS. 5D, 5E, and 5F). Further, for the antibiotic susceptibility test, methicillin-resistant Staphylococcus Aureus (MRSA) bacteria, which are resistant to ampicillin and susceptible to vancomycin, were injected into each well at an amount of 10^6 CFU/mL. For comparative experiments, wells containing only the colorimetric biosensor and bacteria (See FIG. 5A) and wells containing only the colorimetric biosensor (See FIG. 5G) were also prepared. In order to induce the growth of MRSA and the color change of the biosensor accordingly, they were cultured at a temperature of 37° C., and each well plate was photographed at 0, 5, 6, 7, 9, 12, 13 and 15 hours to compare the color change.

SMILES: CC1(C)S[C@@H]2[C@H](NC(=O)[C@H](N)c3ccccc3)C(=O)N2[C@H]1C(=O)O [ampicillin]
- time until color change (blue->red) of the colorimetric biosensor (2 μg/mL antibiotic): 9 h
- time until color change (blue->red) of the colorimetric biosensor (4 μg/mL antibiotic): 13 h
- susceptibility or resistance of MRSA to the antibiotic as determined by biosensor color change: resistance

SMILES: CN[C@H](CC(C)C)C(=O)N[C@H]1C(=O)N[C@@H](CC(N)=O)C(=O)N[C@H]2C(=O)N[C@H]3C(=O)N[C@H](C(=O)N[C@H](C(=O)O)c4cc(O)cc(O)c4-c4cc3ccc4O)[C@H](O)c3ccc(c(Cl)c3)Oc3cc2cc(c3O[C@@H]2O[C@H](CO)[C@@H](O)[C@H](O)[C@H]2O[C@H]2C[C@](C)(N)[C@H](O)[C@H](C)O2)Oc2ccc(cc2Cl)[C@H]1O [vancomycin]
- time until color change (blue->red) of the colorimetric biosensor (0.25 μg/mL antibiotic): 9 h
- time until color change (blue->red) of the colorimetric biosensor (2 μg/mL antibiotic): no color change was observed
- time until color change (blue->red) of the colorimetric biosensor (4 μg/mL antibiotic): no color change was observed
- susceptibility or resistance of MRSA to the antibiotic as determined by biosensor color change: susceptibility
- concentration from which MRSA shows susceptibility (no color change) (tested 0.25, 2 and 4 μg/mL): 2 µg/mL
